One data set relates to ddY female mouse. The data set can be described thus: Effect of test compound on hypoxia (antihypoxic activity). Type of data set: in vivo. As to conditions: po, 100 mg/kg orally, survival time relative to control, read-out: Antihypoxic activity (%). Put shortly:
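Female ddY mice (5-6 weeks, n=10) received 100 mg/kg orally in saline. Time to death was measured and activity calculated versus saline-dosed controls.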

The target in a further data set is T1, acetylcholinesterase (Mus musculus, UniProt P21836).
T1 construct: a mouse cerebral homogenate (as an acetylcholinesterase source); from tissue; host or cells: mouse cerebrum (homogenate)
T1 sequence (P21836 32-614): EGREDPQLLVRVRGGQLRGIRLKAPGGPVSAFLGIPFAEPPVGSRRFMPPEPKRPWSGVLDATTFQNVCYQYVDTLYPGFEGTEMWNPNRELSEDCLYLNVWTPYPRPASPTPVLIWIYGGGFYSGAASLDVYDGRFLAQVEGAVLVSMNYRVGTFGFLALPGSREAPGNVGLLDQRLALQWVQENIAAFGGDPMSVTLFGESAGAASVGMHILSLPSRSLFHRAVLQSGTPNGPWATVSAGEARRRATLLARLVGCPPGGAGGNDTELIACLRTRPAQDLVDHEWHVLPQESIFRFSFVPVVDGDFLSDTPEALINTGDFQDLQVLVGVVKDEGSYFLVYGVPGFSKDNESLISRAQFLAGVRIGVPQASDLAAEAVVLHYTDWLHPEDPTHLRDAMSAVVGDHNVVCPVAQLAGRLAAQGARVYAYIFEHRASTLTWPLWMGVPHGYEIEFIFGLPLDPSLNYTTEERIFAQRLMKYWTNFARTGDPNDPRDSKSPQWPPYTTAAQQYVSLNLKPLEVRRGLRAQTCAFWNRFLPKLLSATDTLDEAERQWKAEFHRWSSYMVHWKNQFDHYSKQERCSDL
As to the kind of experiment: Inhibitory activity for acetylcholinesterase (method of Ellman et al.). In kind it is biochemical. On the procedure: A test was conducted in accordance with the method of Ellman et al. [Biochem. Pharmacol., vol. 7, pp. 88-95, 1961].
That is, acetylthiocholine (as a substrate) was added to a phosphate buffer solution containing 5,5'-dithiobis-(2-nitrobenzoic acid) (DTNB), a test compound and a mouse cerebral homogenate (as an acetylcholinesterase source). The resulting mixture was incubated, and the amount of the resulting 5-thio-2-nitrobenzoic acid was photometrically measured at 412 nm.
The inhibitory activity for acetylcholinesterase of the test compound was expressed by the inhibition (%) when the final concentration of the test compound was 10 µg/ml.
(In general: In Ellman's method for cholinesterases, released thiocholine reacts with DTNB.)

For a further data set, the system named is ddY male mice. As to the kind of experiment: Acute toxicity. In kind it is in vivo, mouse. The conditions noted are these: 50 mg/kg intravenously, group of 3 ddY male mice. The text has this: A test compound dissolved in physiological saline was intravenously administered to a group of 3 ddY male mice (5-6 weeks old) to examine the acute toxicity of the test compound.

[1] abbreviates: placed in chamber (4% oxygen, 96% nitrogen) after 1 hour from the administration.
Setting [2] is: final concentration of the test compound 10 µg/ml, mouse cerebral homogenate, read-out: Inhibition (%).
[3] abbreviates: 0.5 h, placed in chamber (4% oxygen, 96% nitrogen) after 30 minutes from the administration (values marked *).

Structures are written as SMILES. Where a name gives a salt, the structure may show the parent alone. Read-outs that look alike come from different tables or passages of the source.

This is an account of results in EP0589484A1, “1,2-Ethanediol derivative and salt thereof, process for producing the same, and cerebral function-improving agent comprising the same” (TOYAMA CHEMICAL CO., LTD., priority 1989, dated 1990).

As for `CN(C)CCOCC(O)c1ccc(Oc2ccccc2)cc1` (stereo not drawn) [Compound No. 54, 2-[2-(N,N-dimethylamino)ethoxy]-1-[4-(4-phenyloxy)phenyl]ethanol hydrochloride], the response vs control in vivo at 100 mg/kg with ddY female mouse (setting [1]) turned out to be 137%. Further, the inhibition at 10 µg/mL at acetylcholinesterase (setting [2]) came to 83%. The Acute toxicity result in the data set with ddY male mice was “no death case”.
Take `OC(COCCN1CCCC1)c1ccccc1` (stereo not drawn) [compound 6]: the inhibition at 10 µg/mL at acetylcholinesterase (setting [2]) was 13%. Further, the Acute toxicity entry in the data set with ddY male mice was “no death case”.
For `CC(OCCN(C)C)C(O)c1ccccc1` (stereo not drawn) [compound 30], the inhibition at 10 µg/mL on acetylcholinesterase (setting [2]) turned out to be 22%. Moreover, in the data set on ddY male mice, the Acute toxicity result is given as “no death case”.
Consider `CN(C)CCOCC(O)c1ccc(Cl)c(Cl)c1` (stereo not drawn) [compound 34], for which the response vs control in vivo at 100 mg/kg in the data set on ddY female mouse (setting [1]) was found to be 221%. The inhibition at 10 µg/mL at acetylcholinesterase (setting [2]) came out at 26%. Moreover, in the data set with ddY male mice, the Acute toxicity result is listed as “no death case”.
As to `CN(C)CCOCC(O)c1ccc(F)cc1` (stereo not drawn) [compound 38], the inhibition at 10 µg/mL on acetylcholinesterase (setting [2]) is 36%. Besides, the Acute toxicity entry in the data set on ddY male mice is listed as “no death case”.
Consider `CN(C)CCOCC(O)c1cccc([N+](=O)[O-])c1` (stereo not drawn) [compound 40], for which the inhibition at 10 µg/mL at acetylcholinesterase (setting [2]) is 26%. For the same compound, the Acute toxicity entry in the data set on ddY male mice is “no death case”.
Taken in the same sequence, the figures for `Cc1ccccc1-c1ccc(C(O)COCCN(C)C)cc1` (stereo not drawn) [compound 65] were 62% and “no death case”.
Take `CN(C)CCOCC(O)c1ccc(Oc2ccc(F)cc2)cc1` (stereo not drawn) [compound 67]: in the data set on ddY female mouse (setting [3]), the response vs control in vivo at 100 mg/kg turned out to be 247%. Besides, the inhibition at 10 µg/mL at acetylcholinesterase (setting [2]) was determined as 90%. Also, in the data set with ddY male mice, the Acute toxicity entry is reported as “no death case”.
Take `CN(C)CCOCC(O)c1ccc(Oc2ccccc2Cl)cc1` (stereo not drawn) [compound 70]: the inhibition at 10 µg/mL on acetylcholinesterase (setting [2]) was 91%. The Acute toxicity entry in the data set on ddY male mice is “no death case”.
Take `COc1ccc(Oc2ccc(C(O)COCCN(C)C)cc2)cc1` (stereo not drawn) [compound 71]: in the data set with ddY female mouse (setting [1]), the response vs control in vivo at 100 mg/kg came out at 147%. In addition, the inhibition at 10 µg/mL on acetylcholinesterase (setting [2]) turned out to be 87%. For the same compound, the Acute toxicity result in the data set on ddY male mice was “no death case”.
Turning to `CN(C)CCOCC(O)c1cccc(NS(=O)(=O)c2ccccc2)c1` (stereo not drawn) [compound 182], the inhibition at 10 µg/mL on acetylcholinesterase (setting [2]) worked out at 38%. The Acute toxicity entry in the data set on ddY male mice is “no death case”.
For `CC(=O)OC(COCCN(C)C)c1cccc(OC(=O)Nc2cccc(Cl)c2)c1.Cl` (stereo not drawn) [compound 190, 1-acetoxy-1-[3-(3-chlorophenylcarbamoyloxy)phenyl]-2-[2-(N,N-dimethylamino)ethoxy]ethane hydrochloride], the inhibition at 10 µg/mL against acetylcholinesterase came to 76%. Further, the Acute toxicity entry with ddY male mice is listed as “no death case”.
Turning to `CN(C)CCOCC(O)c1ccc2ncccc2c1` (stereo not drawn) [compound 319], at acetylcholinesterase (setting [2]), the inhibition at 10 µg/mL was found to be 30%. Further, the Acute toxicity result with ddY male mice is given as “no death case”.
`CNc1nc(Cl)c(C(O)COCCN(C)C)cc1F` (stereo not drawn) [compound 377]: the response vs control in vivo at 100 mg/kg in the data set on ddY female mouse (setting [3]) is 221%. Moreover, the inhibition at 10 µg/mL at acetylcholinesterase (setting [2]) was determined as 23%. The Acute toxicity entry with ddY male mice was “no death case”.

As a reminder, the inhibition is how much of the control response was suppressed.
